The subject of test [1] is CD79a+ cells over CD79a- cells of a diffuse large B-cell lymphoma patient. In words: ex vivo selectivity of compounds to kill cancerous versus non-cancerous cells, excised lymph node of DLBCL patient (Example 8). The class given is cell-based, human. The conditions noted are these: fraction of live cancerous cells of live total cells relative to DMSO control; dissociated lymph node cells; <1 = selectively kills cancerous cells.
Protocol: Monolayers were incubated overnight (18 h). […] Unstained cells were considered non-cancerous cells.

Test [2] relates to CD20+ cells over CD20- cells of a B-cell lymphoblastic lymphoma patient. Briefly: ex vivo selectivity of compounds to kill cancerous versus non-cancerous cells, pleural effusion of B-LBL patient (Example 7). The class given is cell-based, human. Conditions: fraction of live cancerous cells of live total cells relative to DMSO control, <1 = selectively kills cancerous cells.

Consider `Nc1nc(Cl)nc2c1ncn2[C@H]1C[C@H](O)[C@@H](CO)O1` [cladribine], for which the value/selectivity in test [1] is 0.73.

Consider `Sc1ncnc2nc[nH]c12` [6-mercaptopurine], for which the “value/selectivity determined according to the present invention” value in test [2] is given as 0.58.

On to `CC(C)C[C@H](NC(=O)[C@H](Cc1ccccc1)NC(=O)c1cnccn1)B(O)O` [bortezomib], for which the “value/selectivity determined according to the present invention” value in test [2] is listed as 0.50. The value/selectivity in test [1] is given as 0.59.

(Values after patent publication US20210181183A1, “METHODS FOR DETERMINING SELECTIVITY OF TEST COMPOUNDS” (CEMM - FORSCHUNGSZENTRUM FÜR MOLEKULARE MEDIZIN GmBH, priority 2017, published 2021).)
